Values of other authors, collected in US4698328A, “Method of increasing bone mass” (The General Hospital Corporation, priority 1986, dated 1987).

Settings: osteoporosis in humans; Reeve et al. 1980

hPTH (1-34): fragment of human parathyroid hormone: first thirty-four amino acid residues (SVSEIQLMHNLGKHLNSMERVEWLRKKLQDVHNF; Parathyroid hormone; UniProt P01270 32-65, looked up, fragment)
axial trabecular bone: considerable increase | calcium retention, and hence total bone mass: improved in only about half of these patients
